Starred links: 1 amine or outer side, 2 acyl side, 3 side chain; linkers in the order of their positions; H or OH if unused. Non-standard residues stand in square brackets, D forms with d. Residues, ends and D or L forms follow the SMILES beside them. Groups on a side chain read outwards from the residue. *: point of attachment. C18 diacid = O=C(O)CCCCCCCCCCCCCCCCC(=O)*; C17 diacid = O=C(O)CCCCCCCCCCCCCCCC(=O)*; γGlu = O=C(O)[C@H](CCC(=O)[*:2])N[*:1]; NMeY = CN[C@@H](Cc1ccc(O)cc1)C(=O)O; AEEA = NCCOCCOCC(=O)O; Aib = CC(C)(N)C(=O)O
Experiment: physchem
Outline: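 Solubility at pH 7.4 determined by stepwise addition of 200 mM phosphate buffer in 100 μL increments to 3 mg peptide, mixing briefly each time, until no insoluble material remained, then measured by liquid chromatography.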

Row | Structure (SMILES) | solubility (pH 7.4) [mg/mL] | solubility (pH 7.4, aqueous buffer) [mg/mL]
1 | CC[C@H](C)[C@H](NC(=O)[C@H](CO)NC(=O)[C@H](Cc1ccc(O)cc1)NC(=O)[C@H](CC(=O)O)NC(=O)[C@H](CO)NC(=O)[C@@H](NC(=O)[C@H](Cc1ccccc1)NC(=O)[C@@H](NC(=O)CNC(=O)[C@H](CCC(=O)O)NC(=O)C(C)(C)NC(=O)[C@H](Cc1ccc(O)cc1)NC)[C@@H](C)O)[C@@H](C)CC)C(=O)N[C@@H](C)C(=O)N[C@@H](CC(C)C)C(=O)N[C@@H](CC(=O)O)C(=O)N[C@@H](CCCNC(=N)N)C(=O)NC(C)(C)C(=O)N[C@@H](C)C(=O)N[C@@H](CCC(N)=O)C(=O)NC(C)(C)C(=O)N[C@@H](CCCCNC(=O)COCCOCCNC(=O)COCCOCCNC(=O)CC[C@H](NC(=O)CC[C@H](NC(=O)CCCCCCCCCCCCCCCCC(=O)O)C(=O)O)C(=O)O)C(=O)N[C@@H](Cc1ccccc1)C(=O)N[C@H](C(=O)N[C@@H](CCC(=O)O)C(=O)N[C@@H](Cc1c[nH]c2ccccc12)C(=O)N[C@@H](CC(C)C)C(=O)N[C@@H](CC(C)C)C(=O)N[C@@H](C)C(=O)N[C@@H](CCC(N)=O)C(=O)N[C@@H](CO)C(=O)N1CCC[C@H]1C(=O)NCC(=O)O)C(C)C [Compound 119] (H-[NMeY][Aib]EGTFISDYSIALDR[Aib]AQ[Aib]K([AEEA-AEEA-γGlu-γGlu-C18 diacid])FVEWLLAQSPG-OH) | ≥ 15 | ≥ 30
2 | CC[C@H](C)[C@H](NC(=O)[C@H](CO)NC(=O)[C@H](Cc1ccc(O)cc1)NC(=O)[C@H](CC(=O)O)NC(=O)[C@H](CO)NC(=O)[C@@H](NC(=O)[C@H](Cc1ccccc1)NC(=O)[C@@H](NC(=O)CNC(=O)[C@H](CCC(=O)O)NC(=O)C(C)(C)NC(=O)[C@H](Cc1ccc(O)cc1)NC)[C@@H](C)O)[C@@H](C)CC)C(=O)N[C@@H](C)C(=O)N[C@@H](CC(C)C)C(=O)N[C@@H](CC(=O)O)C(=O)N[C@@H](CCCNC(=N)N)C(=O)NC(C)(C)C(=O)N[C@@H](C)C(=O)N[C@@H](CCC(N)=O)C(=O)NC(C)(C)C(=O)N[C@@H](CCCCNC(=O)COCCOCCNC(=O)COCCOCCNC(=O)CC[C@H](NC(=O)CC[C@H](NC(=O)CCCCCCCCCCCCCCCC(=O)O)C(=O)O)C(=O)O)C(=O)N[C@@H](Cc1ccccc1)C(=O)N[C@H](C(=O)N[C@@H](CC(N)=O)C(=O)N[C@@H](Cc1c[nH]c2ccccc12)C(=O)N[C@@H](CC(C)C)C(=O)N[C@@H](CC(C)C)C(=O)N[C@@H](C)C(=O)N[C@@H](CCC(N)=O)C(=O)N[C@@H](CO)C(=O)N1CCC[C@H]1C(=O)NCC(=O)O)C(C)C [Compound 125] (H-[NMeY][Aib]EGTFISDYSIALDR[Aib]AQ[Aib]K([AEEA-AEEA-γGlu-γGlu-C17 diacid])FVNWLLAQSPG-OH) | ≥ 15 | ≥ 30
3 | CC[C@H](C)[C@H](NC(=O)[C@H](Cc1ccccc1)NC(=O)[C@@H](NC(=O)CNC(=O)[C@H](CCC(=O)O)NC(=O)C(C)(C)NC(=O)[C@H](Cc1ccc(O)cc1)NC)[C@@H](C)O)C(=O)N[C@@H](CO)C(=O)N[C@@H](CC(=O)O)C(=O)N[C@@H](Cc1ccc(O)cc1)C(=O)N[C@@H](CO)C(=O)N[C@H](C(=O)NC(C)(C)C(=O)N[C@@H](CC(C)C)C(=O)N[C@@H](CC(=O)O)C(=O)N[C@@H](CCCNC(=N)N)C(=O)NC(C)(C)C(=O)N[C@@H](C)C(=O)N[C@@H](CCC(N)=O)C(=O)NC(C)(C)C(=O)N[C@@H](CCCCNC(=O)COCCOCCNC(=O)COCCOCCNC(=O)CC[C@H](NC(=O)CC[C@H](NC(=O)CCCCCCCCCCCCCCCC(=O)O)C(=O)O)C(=O)O)C(=O)N[C@@H](Cc1ccccc1)C(=O)N[C@H](C(=O)N[C@@H](CC(N)=O)C(=O)N[C@@H](Cc1c[nH]c2ccccc12)C(=O)N[C@@H](CC(C)C)C(=O)N[C@@H](CC(C)C)C(=O)N[C@@H](C)C(=O)N[C@@H](CCC(N)=O)C(=O)N[C@@H](CO)C(=O)N1CCC[C@H]1C(=O)NCC(=O)O)C(C)C)[C@@H](C)CC [Compound 126] (H-[NMeY][Aib]EGTFISDYSI[Aib]LDR[Aib]AQ[Aib]K([AEEA-AEEA-γGlu-γGlu-C17 diacid])FVNWLLAQSPG-OH) | ≥ 15 | ≥ 30
4 | CC[C@H](C)[C@H](NC(=O)[C@H](Cc1ccccc1)NC(=O)[C@@H](NC(=O)CNC(=O)[C@H](CCC(=O)O)NC(=O)C(C)(C)NC(=O)[C@H](Cc1ccc(O)cc1)NC)[C@@H](C)O)C(=O)N[C@@H](CO)C(=O)N[C@@H](CC(=O)O)C(=O)N[C@@H](Cc1ccc(O)cc1)C(=O)N[C@@H](CO)C(=O)N[C@H](C(=O)NC(C)(C)C(=O)N[C@@H](CC(C)C)C(=O)N[C@@H](CC(=O)O)C(=O)N[C@@H](CCCNC(=N)N)C(=O)NC(C)(C)C(=O)N[C@@H](C)C(=O)N[C@@H](CCC(N)=O)C(=O)NC(C)(C)C(=O)N[C@@H](CCCCNC(=O)COCCOCCNC(=O)COCCOCCNC(=O)CC[C@H](NC(=O)CC[C@H](NC(=O)CCCCCCCCCCCCCCCC(=O)O)C(=O)O)C(=O)O)C(=O)N[C@@H](Cc1ccccc1)C(=O)N[C@H](C(=O)N[C@@H](CC(N)=O)C(=O)N[C@@H](Cc1c[nH]c2ccccc12)C(=O)N[C@@H](CC(C)C)C(=O)N[C@@H](CC(C)C)C(=O)N[C@@H](C)C(=O)N[C@@H](CCC(N)=O)C(=O)N[C@@H](CCCNC(=N)N)C(=O)NCC(=O)O)C(C)C)[C@@H](C)CC [Compound 127] (H-[NMeY][Aib]EGTFISDYSI[Aib]LDR[Aib]AQ[Aib]K([AEEA-AEEA-γGlu-γGlu-C17 diacid])FVNWLLAQRG-OH) | ≥ 15 | ≥ 30
5 | CC[C@H](C)[C@H](NC(=O)[C@H](CCCCN)NC(=O)[C@H](CC(=O)O)NC(=O)[C@H](CC(C)C)NC(=O)C(C)(C)NC(=O)[C@@H](NC(=O)[C@H](CO)NC(=O)[C@H](Cc1ccc(O)cc1)NC(=O)[C@H](CC(=O)O)NC(=O)[C@H](CO)NC(=O)[C@@H](NC(=O)[C@H](Cc1ccccc1)NC(=O)[C@@H](NC(=O)CNC(=O)[C@H](CCC(=O)O)NC(=O)C(C)(C)NC(=O)[C@@H](N)Cc1ccc(O)cc1)[C@@H](C)O)[C@@H](C)CC)[C@@H](C)CC)C(=O)N[C@@H](C)C(=O)N[C@@H](CCC(N)=O)C(=O)N[C@@H](CCC(N)=O)C(=O)N[C@@H](CCCCNC(=O)COCCOCCNC(=O)COCCOCCNC(=O)CC[C@H](NC(=O)CC[C@H](NC(=O)CCCCCCCCCCCCCCCC(=O)O)C(=O)O)C(=O)O)C(=O)N[C@@H](Cc1ccccc1)C(=O)N[C@H](C(=O)N[C@@H](CCC(=O)O)C(=O)N[C@@H](Cc1c[nH]c2ccccc12)C(=O)N[C@@H](CC(C)C)C(=O)N[C@@H](CC(C)C)C(=O)N[C@@H](C)C(=O)N[C@@H](CCC(N)=O)C(=O)N[C@@H](CCCNC(=N)N)C(=O)NCC(=O)O)C(C)C [Compound 129] (H-Y[Aib]EGTFISDYSI[Aib]LDKIAQQK([AEEA-AEEA-γGlu-γGlu-C17 diacid])FVEWLLAQRG-OH) | ≥ 15 | ≥ 30
6 | CC[C@H](C)[C@H](NC(=O)[C@H](CO)NC(=O)[C@H](Cc1ccc(O)cc1)NC(=O)[C@H](CC(=O)O)NC(=O)[C@H](CO)NC(=O)[C@@H](NC(=O)[C@H](Cc1ccccc1)NC(=O)[C@@H](NC(=O)CNC(=O)[C@H](CCC(=O)O)NC(=O)C(C)(C)NC(=O)[C@@H](N)Cc1ccc(O)cc1)[C@@H](C)O)[C@@H](C)CC)C(=O)N[C@@H](C)C(=O)N[C@@H](CC(C)C)C(=O)N[C@@H](CC(=O)O)C(=O)N[C@@H](CCCCN)C(=O)NC(C)(C)C(=O)N[C@@H](C)C(=O)N[C@@H](CCC(N)=O)C(=O)N[C@@H](CCC(N)=O)C(=O)N[C@@H](CCCCNC(=O)COCCOCCNC(=O)COCCOCCNC(=O)CC[C@H](NC(=O)CC[C@H](NC(=O)CCCCCCCCCCCCCCCC(=O)O)C(=O)O)C(=O)O)C(=O)N[C@@H](Cc1ccccc1)C(=O)N[C@H](C(=O)N[C@@H](CCC(=O)O)C(=O)N[C@@H](Cc1c[nH]c2ccccc12)C(=O)N[C@@H](CC(C)C)C(=O)N[C@@H](CC(C)C)C(=O)N[C@@H](C)C(=O)N[C@@H](CCC(N)=O)C(=O)N[C@@H](CCCNC(=N)N)C(=O)NCC(=O)O)C(C)C [Compound 130] (H-Y[Aib]EGTFISDYSIALDK[Aib]AQQK([AEEA-AEEA-γGlu-γGlu-C17 diacid])FVEWLLAQRG-OH) | ≥ 15 | ≥ 30
7 | CC[C@H](C)[C@H](NC(=O)[C@H](CO)NC(=O)[C@H](Cc1ccc(O)cc1)NC(=O)[C@H](CC(=O)O)NC(=O)[C@H](CO)NC(=O)[C@@H](NC(=O)[C@H](Cc1ccccc1)NC(=O)[C@@H](NC(=O)CNC(=O)[C@H](CCC(=O)O)NC(=O)C(C)(C)NC(=O)[C@@H](N)Cc1ccc(O)cc1)[C@@H](C)O)[C@@H](C)CC)C(=O)N[C@@H](C)C(=O)N[C@@H](CC(C)C)C(=O)N[C@@H](CC(=O)O)C(=O)N[C@@H](CCCCN)C(=O)NC(C)(C)C(=O)N[C@@H](C)C(=O)N[C@@H](CCC(N)=O)C(=O)N[C@@H](C)C(=O)N[C@@H](CCCCNC(=O)COCCOCCNC(=O)COCCOCCNC(=O)CC[C@H](NC(=O)CC[C@H](NC(=O)CCCCCCCCCCCCCCCC(=O)O)C(=O)O)C(=O)O)C(=O)N[C@@H](Cc1ccccc1)C(=O)N[C@H](C(=O)N[C@@H](CCC(=O)O)C(=O)N[C@@H](Cc1c[nH]c2ccccc12)C(=O)N[C@@H](CC(C)C)C(=O)N[C@@H](CC(C)C)C(=O)N[C@@H](C)C(=O)N[C@@H](CCC(N)=O)C(=O)N[C@@H](CCCNC(=N)N)C(=O)NCC(=O)O)C(C)C [Compound 131] (H-Y[Aib]EGTFISDYSIALDK[Aib]AQAK([AEEA-AEEA-γGlu-γGlu-C17 diacid])FVEWLLAQRG-OH) | ≥ 15 | ≥ 30
8 | CC[C@H](C)[C@H](NC(=O)[C@H](CCCCN)NC(=O)[C@H](CC(=O)O)NC(=O)[C@H](CC(C)C)NC(=O)[C@H](C)NC(=O)[C@@H](NC(=O)[C@H](CO)NC(=O)[C@H](Cc1ccc(O)cc1)NC(=O)[C@H](CC(=O)O)NC(=O)[C@H](CO)NC(=O)[C@@H](NC(=O)[C@H](Cc1ccccc1)NC(=O)[C@@H](NC(=O)CNC(=O)[C@H](CCC(=O)O)NC(=O)C(C)(C)NC(=O)[C@@H](N)Cc1ccc(O)cc1)[C@@H](C)O)[C@@H](C)CC)[C@@H](C)CC)C(=O)N[C@@H](C)C(=O)N[C@@H](CCC(N)=O)C(=O)NC(C)(C)C(=O)N[C@@H](CCCCNC(=O)COCCOCCNC(=O)COCCOCCNC(=O)CC[C@H](NC(=O)CC[C@H](NC(=O)CCCCCCCCCCCCCCCC(=O)O)C(=O)O)C(=O)O)C(=O)N[C@@H](Cc1ccccc1)C(=O)N[C@H](C(=O)N[C@@H](CCC(=O)O)C(=O)N[C@@H](Cc1c[nH]c2ccccc12)C(=O)N[C@@H](CC(C)C)C(=O)N[C@@H](CC(C)C)C(=O)N[C@@H](C)C(=O)N[C@@H](CCC(N)=O)C(=O)N[C@@H](CCCNC(=N)N)C(=O)NCC(=O)O)C(C)C [Compound 132] (H-Y[Aib]EGTFISDYSIALDKIAQ[Aib]K([AEEA-AEEA-γGlu-γGlu-C17 diacid])FVEWLLAQRG-OH) | ≥ 15 | ≥ 30

Source: patent US20230143604A1, “QW DOSING OF GIP RECEPTOR AGONIST PEPTIDE COMPOUNDS AND USES THEREOF” (TAKEDA PHARMACEUTICAL COMPANY LIMITED, priority 2020, published 2023)
